In ChEMBL document CHEMBL3046368, “Synthesis of benzothiazole derivatives and their biological evaluation as anticancer agents” (2012):
Activity calls are given as the source filed them. The calls are words filed in the database; no cut-off is given here.

Legend:
[1] = target: T1, Ubiquitin-like modifier-activating enzyme 1 (Homo sapiens) (UniProt P22314); assay: Inhibition of ubiquitin displacement on His6-tagged E2 enzyme from His6-tagged UBA1 (unknown origin) at 10 uM after 1.5 hr by SDS-PAGE analysis
T1 sequence (whole entry): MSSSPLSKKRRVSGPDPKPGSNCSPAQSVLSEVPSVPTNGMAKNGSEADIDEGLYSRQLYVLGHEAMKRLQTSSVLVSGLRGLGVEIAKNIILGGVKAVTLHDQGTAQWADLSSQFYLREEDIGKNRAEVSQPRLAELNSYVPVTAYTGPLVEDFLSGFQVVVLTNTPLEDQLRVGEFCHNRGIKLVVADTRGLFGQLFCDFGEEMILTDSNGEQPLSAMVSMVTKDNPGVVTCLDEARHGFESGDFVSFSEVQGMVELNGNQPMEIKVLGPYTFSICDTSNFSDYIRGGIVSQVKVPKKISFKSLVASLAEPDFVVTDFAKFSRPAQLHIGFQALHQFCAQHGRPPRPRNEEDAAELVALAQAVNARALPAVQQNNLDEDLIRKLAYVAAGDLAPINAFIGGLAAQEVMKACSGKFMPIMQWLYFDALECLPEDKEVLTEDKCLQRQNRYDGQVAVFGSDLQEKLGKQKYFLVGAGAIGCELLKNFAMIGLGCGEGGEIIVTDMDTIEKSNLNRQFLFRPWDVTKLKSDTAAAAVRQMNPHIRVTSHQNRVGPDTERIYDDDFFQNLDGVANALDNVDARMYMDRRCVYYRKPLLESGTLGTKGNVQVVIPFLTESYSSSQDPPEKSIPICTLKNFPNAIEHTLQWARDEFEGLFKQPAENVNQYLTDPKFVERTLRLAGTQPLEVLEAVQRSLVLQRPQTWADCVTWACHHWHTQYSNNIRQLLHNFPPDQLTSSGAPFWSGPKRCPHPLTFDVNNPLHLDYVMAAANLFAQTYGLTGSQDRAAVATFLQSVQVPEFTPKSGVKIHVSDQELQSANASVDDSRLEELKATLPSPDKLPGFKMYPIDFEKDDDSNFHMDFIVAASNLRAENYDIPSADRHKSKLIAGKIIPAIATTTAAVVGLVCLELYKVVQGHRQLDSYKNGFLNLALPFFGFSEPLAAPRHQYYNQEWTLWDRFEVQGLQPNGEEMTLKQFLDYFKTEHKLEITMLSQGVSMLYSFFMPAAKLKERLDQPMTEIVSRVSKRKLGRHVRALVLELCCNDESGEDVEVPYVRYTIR

[2] = Cytotoxicity against Homo sapiens (human) prostate cancer cells assessed as cell growth at 10^-5 M after 48 hr by SRB assay relative to control; assay type: functional; settings: Cancer cell lines, read-out: Activity
[3] = Cytotoxicity against Homo sapiens (human) leukemia cells assessed as cell growth at 10^-5 M after 48 hr by SRB assay relative to control; assay type: functional; settings: read-out: Activity
[4] = Cytotoxicity against Homo sapiens (human) NSCLC cells assessed as cell growth at 10^-5 M after 48 hr by SRB assay relative to control; assay type: functional; settings: read-out: Activity
[5] = Cytotoxicity against Homo sapiens (human) breast cancer cells assessed as cell growth at 10^-5 M after 48 hr by SRB assay relative to control; assay type: functional; settings: Cancer cell lines, read-out: Activity
[6] = Cytotoxicity against Homo sapiens (human) colon cancer cells assessed as cell growth at 10^-5 M after 48 hr by SRB assay relative to control; assay type: functional; settings: Cancer cell lines, read-out: Activity
[7] = Cytotoxicity against Homo sapiens (human) CNSC cells assessed as cell growth at 10^-5 M after 48 hr by SRB assay relative to control; assay type: functional; settings: read-out: Activity
[8] = Cytotoxicity against Homo sapiens (human) renal cancer cells assessed as cell growth at 10^-5 M after 48 hr by SRB assay relative to control; assay type: functional; settings: Cancer cell lines, read-out: Activity
[9] = Cytotoxicity against Homo sapiens (human) melanoma cells assessed as cell growth at 10^-5 M after 48 hr by SRB assay relative to control; assay type: functional; settings: read-out: Activity
[10] = Cytotoxicity against Homo sapiens (human) ovarian cancer cells assessed as cell growth at 10^-5 M after 48 hr by SRB assay relative to control; assay type: functional; settings: Cancer cell lines, read-out: Activity
[11] = system: SF-268; assay: Cytotoxicity against Homo sapiens (human) SF268 cells after 48 hr by SRB assay; assay type: functional; settings: SF-268, 48 h
[12] = system: RPMI-8226; assay: Cytotoxicity against Homo sapiens (human) RPMI8226 cells after 48 hr by SRB assay; assay type: functional; settings: RPMI-8226, 48 h
[13] = system: SN12C; assay: Cytotoxicity against Homo sapiens (human) SN12C cells after 48 hr by SRB assay; assay type: functional
[14] = system: SNB-75; assay: Cytotoxicity against Homo sapiens (human) SNB75 cells after 48 hr by SRB assay; assay type: functional; settings: SNB-75, 48 h
[15] = system: A498; assay: Cytotoxicity against Homo sapiens (human) A498 cells after 48 hr by SRB assay; assay type: functional; settings: A498, 48 h
[16] = system: SF-539; assay: Cytotoxicity against Homo sapiens (human) SF539 cells after 48 hr by SRB assay; assay type: functional; settings: SF-539, 48 h
[17] = system: OVCAR-3; assay: Cytotoxicity against Homo sapiens (human) OVCAR3 cells after 48 hr by SRB assay; assay type: functional; settings: OVCAR-3, 48 h
[18] = system: MCF7; assay: Cytotoxicity against Homo sapiens (human) MCF7 cells after 48 hr by SRB assay; assay type: functional; settings: MCF7, 48 h
[19] = system: HOP-62; assay: Cytotoxicity against Homo sapiens (human) HOP62 cells after 48 hr by SRB assay; assay type: functional; settings: HOP-62, 48 h
[20] = system: COLO 205; assay: Cytotoxicity against Homo sapiens (human) COLO205 cells after 48 hr by SRB assay; assay type: functional; settings: COLO 205, 48 h

COc1ccc(C(=O)Nc2nc3ccc(OC)cc3s2)cc1
inhibition [1]: inactive

O=C(Nc1nc2ccc(OC(F)(F)F)cc2s1)c1c(F)cccc1F
inhibition [1]: inactive

COc1ccc2nc(NC(=O)Nc3c(F)cccc3F)sc2c1
inhibition [1]: inactive | growth at 10 µM [2]: 100% | growth at 10 µM [3]: 91.2% | growth at 10 µM [4]: 99.2% | growth at 10 µM [5]: 107% | growth at 10 µM [6]: 107% | growth at 10 µM [7]: 104% | growth at 10 µM [8]: 97.9% | growth at 10 µM [9]: 102% | growth at 10 µM [10]: 108%

O=c1[nH]cc(F)c(=O)[nH]1 [FLUOROURACIL]
GI50 [11]: 1.58 µM | GI50 [12]: 0.0447 µM | GI50 [13]: 0.501 µM | GI50 [14]: 79.4 µM | GI50 [15]: 0.398 µM | GI50 [16]: 0.0631 µM | GI50 [17]: 0.0158 µM | GI50 [18]: 0.0794 µM | GI50 [19]: 0.398 µM | GI50 [20]: 0.158 µM

COc1ccc2nc(NC(=O)Nc3ccc(C#N)cc3)sc2c1
inhibition [1]: inactive

COc1ccc2nc(NC(=O)c3ccc(C#N)cc3)sc2c1
inhibition [1]: inactive

COc1ccc(NC(=O)Nc2nc3ccc(OC)cc3s2)cc1
inhibition [1]: inactive

COc1ccc(NC(=O)Nc2nc3ccc(OC(F)(F)F)cc3s2)cc1
inhibition [1]: inactive | growth at 10 µM [2]: 95.3% | growth at 10 µM [3]: 87% | growth at 10 µM [4]: 95.8% | growth at 10 µM [5]: 97.8% | growth at 10 µM [6]: 101% | growth at 10 µM [7]: 103% | growth at 10 µM [8]: 99.4% | growth at 10 µM [9]: 104% | growth at 10 µM [10]: 97.5%

O=C(Nc1nc2ccc(OC(F)(F)F)cc2s1)c1ccc(F)cc1
inhibition [1]: inactive

COc1ccc2nc(NC(=O)c3ccc(F)cc3)sc2c1
inhibition [1]: inactive

COc1ccc2nc(NC(=O)c3c(F)cccc3F)sc2c1
inhibition [1]: inactive

CC(=O)Nc1ccc(C(=O)Nc2nc3ccc(OC(F)(F)F)cc3s2)cc1
inhibition [1]: inactive

O=C(Nc1nc2ccc(OC(F)(F)F)cc2s1)Nc1c(F)cccc1F
inhibition [1]: inactive | growth at 10 µM [2]: 83.8% | growth at 10 µM [3]: 64.4% | growth at 10 µM [4]: 77.6% | growth at 10 µM [5]: 89.5% | growth at 10 µM [6]: 91.8% | growth at 10 µM [7]: 96% | growth at 10 µM [8]: 89.4% | growth at 10 µM [9]: 89.6% | growth at 10 µM [10]: 90.2%

N#Cc1ccc(C(=O)Nc2nc3ccc(OC(F)(F)F)cc3s2)cc1
inhibition [1]: inactive

COc1ccc2nc(NC(=O)c3ccc(NC(C)=O)cc3)sc2c1
inhibition [1]: inactive

COc1ccc2nc(NC(=O)Nc3ccc(F)cc3)sc2c1
inhibition [1]: inactive

COc1ccc(C(=O)Nc2nc3ccc(OC(F)(F)F)cc3s2)cc1
inhibition [1]: inactive
